Activity calls are given as the source filed them. Unless noted, the calls are words filed in the database; no cut-off is given here.
Tests used:
INS-1 832/13 [1] = test: Activation of AKT in STZ-induced rat INS-1 832/13 cells assessed as increase in Akt phosphorylation at 20 uM after 24 hrs by Western blot analysis; conditions: filed as activator
INS1(832/13) [2] = test: Cytoprotective activity against STZ-induced toxicity in rat INS-1 832/13 cells at 20 uM incubated for 24 hrs by MTT assay; assay type: functional, cell-based
INS1(832/13) [3] = test: Cytoprotective activity in rat INS-1 832/13 cells assessed as inhibition of STZ-induced apoptosis at 20 uM incubated for 24 hrs in presence of wortmannin by MTT assay; assay type: functional, cell-based
INS1(832/13) [4] = test: Cytoprotective activity in rat INS-1 832/13 cells assessed as inhibition of STZ-induced apoptosis at 20 uM incubated for 24 hrs by MTT assay relative to control; assay type: functional; set-up: scale not given: the % may be the effect or the level left
INS-1 832/13 [5] = test: Activation of AKT in STZ-induced rat INS-1 832/13 cells assessed as increase in Akt phosphorylation at 20 uM after 24 hrs in presence of wortmannin by Western blot analysis
INS-1 832/13 [6] = test: Activation of AKT in STZ-induced rat INS-1 832/13 cells assessed as increase in Akt phosphorylation at 20 uM after 24 hrs by AlphaLISA assay; conditions: filed as activator
INS1(832/13) [7] = test: Cytoprotective activity in rat INS-1 832/13 cells assessed as inhibition of STZ-induced apoptosis incubated for 24 hrs by MTT assay; assay type: functional, cell-based; conditions: INS-1 832/13, 24 h
INS1(832/13) [8] = test: Cytoprotective activity against STZ-induced toxicity in rat INS-1 832/13 cells assessed as mass of apoptotic cells at 20 uM by Annexin V-FITC staining based flow cytometric analysis (reference value: 40.8%); assay type: functional
INS-1 832/13 [9] = test: Activation of PI3K/Akt signalling pathway in STZ-induced rat INS-1 832/13 cells assessed as decrease in caspase 9 protein expression at 5 to 20 uM after 24 hrs by Western blot analysis; conditions: filed as activator, dose 5-20 µM
INS-1 832/13 [10] = test: Activation of PI3K/Akt signalling pathway in STZ-induced rat INS-1 832/13 cells assessed as decrease in Bim mRNA expression at 5 to 20 uM after 24 hrs by RT-PCR analysis; conditions: filed as activator, dose 5-20 µM
INS1(832/13) [11] = test: Cytoprotective activity against STZ-induced rat INS-1 832/13 cells assessed as increase in IRS2 mRNA expression at 5 to 20 uM after 24 hrs RT-PCR analysis; assay type: functional, cell-based; conditions: dose 5-20 µM
INS-1 832/13 [12] = test: Activation of AKT in STZ-induced rat INS-1 832/13 cells assessed as increase in Akt phosphorylation at 5 to 20 uM after 24 hrs by Western blot analysis; conditions: filed as activator, dose 5-20 µM
INS1(832/13) [13] = test: Cytoprotective activity against STZ-induced toxicity in rat INS-1 832/13 cells assessed as mass of apoptotic cells at 10 uM by Annexin V-FITC staining based flow cytometric analysis (reference value: 40.8%); assay type: functional
INS1(832/13) [14] = test: Cytoprotective activity against STZ-induced toxicity in rat INS-1 832/13 cells assessed as mass of apoptotic cells at 5 uM by Annexin V-FITC staining based flow cytometric analysis (reference value: 40.8%); assay type: functional
INS-1 832/13 [15] = test: Activation of PI3K/Akt signalling pathway in STZ-induced rat INS-1 832/13 cells assessed as decrease in cleaved-caspase 3 protein expression at 5 to 20 uM after 24 hrs by Western blot analysis; conditions: filed as activator, dose 5-20 µM
INS-1 832/13 [16] = test: Activation of PI3K/Akt signalling pathway in STZ-induced rat INS-1 832/13 cells assessed as increase in phosphorylation of FOX01 at Ser256 residue at 5 to 20 uM after 24 hrs by Western blot analysis; conditions: filed as activator, dose 5-20 µM
INS-1 832/13 [17] = test: Activation of PI3K/Akt signalling pathway in STZ-induced rat INS-1 832/13 cells assessed as decrease in caspase 3 protein expression at 5 to 20 uM after 24 hrs by Western blot analysis; conditions: filed as activator, dose 5-20 µM
INS1(832/13) [18] = test: Cytoprotective activity against STZ-induced rat INS-1 832/13 cells assessed as increase in IRS2 protein expression at 5 to 20 uM after 24 hrs Western blot analysis; assay type: functional, cell-based; conditions: dose 5-20 µM
INS1(832/13) [19] = test: Cytoprotective activity against STZ-induced toxicity in rat INS-1 832/13 cells at 10 uM incubated for 24 hrs by MTT assay; assay type: functional, cell-based
INS-1 832/13 [20] = test: Activation of AKT in STZ-induced rat INS-1 832/13 cells assessed as increase in Akt phosphorylation at 5 to 20 uM after 24 hrs by AlphaLISA assay; conditions: filed as activator, dose 5-20 µM
INS1(832/13) [21] = test: Potency index, ratio of vincamine EC50 to test compound EC50 for cytoprotective activity in rat INS-1 832/13 cells assessed as inhibition of STZ-induced apoptosis; assay type: functional
INS-1 832/13 [22] = test: Activation of PI3K/Akt signalling pathway in STZ-induced rat INS-1 832/13 cells assessed as increase in phosphorylation of GSK3beta at Ser9 residue at 5 to 20 uM after 24 hrs by Western blot analysis; conditions: filed as activator, dose 5-20 µM
INS-1 832/13 [23] = test: Activation of PI3K/Akt signalling pathway in STZ-induced rat INS-1 832/13 cells assessed as decrease in p21 mRNA expression at 5 to 20 uM after 24 hrs by RT-PCR analysis; conditions: filed as activator, dose 5-20 µM

For `CC[C@]12CCCN3CCc4c(n(c5ccccc45)[C@@](O)(C(=O)OC)C1)[C@@H]32` [VINCAMINE], the Activity (INS-1 832/13 [1]) was “Active”, the Activity (INS1(832/13) [2]) was “Active” and the Activity (INS1(832/13) [3]) was “inactive”. The Activity (INS1(832/13) [4]) was 63%, the Activity (INS-1 832/13 [5]) was “inactive” and the Activity (INS-1 832/13 [6]) was “Active”. The EC50 (INS1(832/13) [7]) was 11 µM and the Activity (INS1(832/13) [8]) was 28.7%.

For `CCNCC1=C[C@]2(CC)CCCN3CCc4c(n1c1ccccc41)[C@@H]32`, the Activity (INS-1 832/13 [9]) was “Active”, the Activity (INS1(832/13) [3]) was “inactive” and the Activity (INS-1 832/13 [10]) was “Active”. For the same molecule, the Activity (INS1(832/13) [11]) was “Active”, the Activity (INS-1 832/13 [12]) was “Active” and the Activity (INS1(832/13) [13]) was 29.1%. The Activity (INS1(832/13) [14]) was 31.3%, the Activity (INS-1 832/13 [15]) was “Active” and the Activity (INS-1 832/13 [16]) was “Active”. The Activity (INS-1 832/13 [17]) was “Active”, the Activity (INS1(832/13) [18]) was “Active” and the Activity (INS1(832/13) [4]) was “Active”. The Activity (INS-1 832/13 [5]) was “inactive”, the Activity (INS1(832/13) [19]) was “Active” and the Activity (INS-1 832/13 [20]) was “Active”. The EC50 (INS1(832/13) [7]) was 0.27 µM, the Activity (INS1(832/13) [8]) was 24.1% and the “Ratio EC50” value (INS1(832/13) [21]) was 2. The Activity (INS-1 832/13 [22]) was “Active” and the Activity (INS-1 832/13 [23]) was “Active”.

— ChEMBL document CHEMBL4680150, “Design, synthesis and biological evaluation of vincamine derivatives as potential pancreatic β-cells protective agents for the treatment of type 2 diabetes mellitus” (Eur J Med Chem, 2020)
